Laboratory results as given in patent US11180462B2, “Microbiocidal oxadiazole derivatives” (SYNGENTA PARTICIPATIONS AG, priority 2015, dated 2021).

Legend:
[1] = system: Puccinia recondita f. Sp. Tritici; assay: Fungicidal activity against Puccinia recondita f. sp. tritici / wheat / leaf disc curative (brown rust); format: in vivo; settings: foliar, 24 h, 200 ppm in the applied formulation, wheat leaf segments, curative (applied 1 day after inoculation), compared to untreated control leaf disks, read-out: disease control
Method: Leaf disks or leaf segments of various plant species are cut from plants grown in a greenhouse. The cut leaf disks or segments are placed in multiwell plates (24-well format) onto water agar. The leaf disks are sprayed with a test solution before (preventative) or after (curative) inoculation. Compounds to be tested are prepared as DMSO solutions (max. 10 mg/ml) which are diluted to the appropriate concentration with 0.025% Tween20 just before spraying. The inoculated leaf disks or segments are incubated under defined conditions (temperature, relative humidity, light, etc.) according to the respective test system. A single evaluation of disease level is carried out 3 to 14 days after inoculation, depending on the pathosystem. Percent disease control relative to the untreated check leaf disks or segments is then calculated.
Fungicidal Activity Against Puccinia recondita f. Sp. Tritici/Wheat/Leaf Disc Curative (Brown Rust)
Wheat leaf segments cv. Kanzler are placed on agar in multiwell plates (24-well format). The leaf segments are then inoculated with a spore suspension of the fungus. Plates were stored in darkness at 19° C. and 75% relative humidity. The formulated test compound diluted in water was applied 1 day after inoculation. The leaf segments were incubated at 19° C. and 75% relative humidity under a light regime of 12 hours light/12 hours darkness in a climate cabinet and the activity of a compound was assessed as percent disease control compared to untreated when an appropriate level of disease damage appears in untreated check leaf segments (6 to 8 days after application).
The following compounds at 200 ppm in the applied formulation give at least 80% disease control in this test when compared to untreated control leaf disks under the same conditions, which show extensive disease development.

[2] = system: Glomerella lagenarium (Colletotrichum lagenarium); assay: Fungicidal activity against Glomerella lagenarium (Colletotrichum lagenarium) liquid culture / cucumber / preventative (anthracnose); format: cell-based; settings: Colletotrichum orbiculare; 20 ppm in the applied formulation; liquid culture (PDB), growth inhibition measured photometrically after 3 to 4 days; compared to untreated control; read-out: disease control
In short: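 Percent activity against the untreated check was derived from photometric growth measurements made 2 to 7 days after conidia in potato dextrose broth were combined with compound at 20 ppm. Cultures were kept dark at 24 °C and 96% humidity.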

[3] = system: Puccinia recondita f. Sp. Tritici; assay: Fungicidal activity against Puccinia recondita f. sp. tritici / wheat / leaf disc preventative (brown rust); format: in vivo; settings: foliar, 200 ppm in the applied formulation, wheat leaf segments, preventative, compared to untreated control leaf disks, read-out: disease control
In short: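 Percent disease control relative to untreated check segments is scored once disease develops, 7 to 9 days after application. Wheat cv. Kanzler segments receive compound spray (200 ppm in formulation) one day before spore inoculation, then sit at 19° C. and 75% rh under 12 h light/12 h dark.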

Structure (SMILES) | pest or weed control at 200 ppm [1] [%] | inhibition of growth at 20 ppm [2] [%] | pest or weed control at 200 ppm [3] [%]
CON(Cc1ccc(-c2noc(C(F)(F)F)n2)cc1)C(=O)c1cccc(C(F)(F)F)c1 [Compound 1.13, N-methoxy-3-(trifluoromethyl)-N-[[4-[5-(trifluoromethyl)-1,2,4-oxadiazol-3-yl]phenyl]methyl]-benzamide] | ≥ 80 | ≥ 80 | –
CON(Cc1ccc(-c2noc(C(F)(F)F)n2)cc1)C(=O)c1cccc2ccccc12 [Compound 1.37] | ≥ 80 | ≥ 80 | –
O=C(CCCCC(F)(F)F)N(Cc1ccc(-c2noc(C(F)(F)F)n2)cc1)C1CC1 [Compound 1.131, N-cyclopropyl-6,6,6-trifluoro-N-[[4-[5-(trifluoromethyl)-1,2,4-oxadiazol-3-yl]phenyl]methyl]-hexanamide] | ≥ 80 | ≥ 80 | –
C#CCC(NS(=O)(=O)CC)C(=O)N(Cc1ccc(-c2noc(C(F)(F)F)n2)cc1)C1CC1 (stereo not drawn) [Compound 1.137, N-cyclopropyl-2-(ethylsulfonylamino)-N-[[4-[5-(trifluoromethyl)-1,2,4-oxadiazol-3-yl]phenyl]methyl]pent-4-ynamide] | ≥ 80 | – | –
C#CCN(Cc1ccc(-c2noc(C(F)(F)F)n2)cc1)C(=O)C(C)(C)CCC [Compound 1.153, 2,2-dimethyl-N-prop-2-ynyl-N-[[4-[5-(trifluoromethyl)-1,2,4-oxadiazol-3-yl]phenyl]methyl]-pentanamide] | ≥ 80 | ≥ 80 | –
C#CCN(Cc1ccc(-c2noc(C(F)(F)F)n2)cc1)C(=O)CCc1ccc(Cl)cc1 [Compound 1.160, 3-(4-chlorophenyl)-N-prop-2-ynyl-N-[[4-[5-(trifluoromethyl)-1,2,4-oxadiazol-3-yl]phenyl]methyl]-propanamide] | ≥ 80 | – | –
CCCC(C)(C)C(=O)N(Cc1ccc(-c2noc(C(F)(F)F)n2)cc1)CC1CC1 [Compound 1.204, N-(cyclopropylmethyl)-2,2-dimethyl-N-[[4-[5-(trifluoromethyl)-1,2,4-oxadiazol-3-yl]phenyl]methyl]-pentanamide] | ≥ 80 | – | –
CCCON(Cc1ccc(-c2noc(C(F)(F)F)n2)cc1)C(=O)C1OCCO1 [Compound 1.317, N-propoxy-N-[[4-[5-(trifluoromethyl)-1,2,4-oxadiazol-3-yl]phenyl]methyl]-1,3-dioxolane-2-carboxamide] | ≥ 80 | ≥ 80 | –
COCCN(Cc1ccc(-c2noc(C(F)(F)F)n2)cc1)C(=O)C1(F)CC1 [Compound 1.349, 1-fluoro-N-(2-methoxyethyl)-N-[[4-[5-(trifluoromethyl)-1,2,4-oxadiazol-3-yl]phenyl]methyl]-cyctopropane-carboxamide] | ≥ 80 | ≥ 80 | –
CC(=O)N1CCCC1C(=O)N(Cc1ccc(-c2noc(C(F)(F)F)n2)cc1)CC1CCCO1 (stereo not drawn) [Compound 1.444, 1-acetyl-N-(tetrahydrofuran-2-ylmethyl)-N-[[4-[5-(trifluoromethyl)-1,2,4-oxadiazol-3-yl]phenyl]methyl]-pyrrolidine-2-carboxamide] | ≥ 80 | – | –
CCCCC(=O)N(Cc1ccc(-c2noc(C(F)(F)F)n2)cc1)CC1CCCO1 (stereo not drawn) [Compound 1.453, N-(tetrahydrofuran-2-ylmethyl)-N-[[4-[5-(trifluoromethyl)-1,2,4-oxadiazol-3-yl]phenyl]methyl]-pentanamide] | – | ≥ 80 | ≥ 80
CC(=O)NCC(=O)N(Cc1ccc(-c2noc(C(F)(F)F)n2)cc1)Cc1ccco1 [Compound 1.461, 2-acetamido-N-(2-furylmethyl)-N-[[4-[5-(trifluoromethyl)-1,2,4-oxadiazol-3-yl]phenyl]methyl]-acetamide] | – | ≥ 80 | ≥ 80
O=C(CCl)N(Cc1ccc(-c2noc(C(F)(F)F)n2)cc1)Cc1ccco1 [Compound 1.462, 2-chloro-N-(2-furylmethyl)-N-[[4-[5-(trifluoromethyl)-1,2,4-oxadiazol-3-yl]phenyl]methyl]-acetamide] | – | ≥ 80 | ≥ 80
O=C(C1CC1(F)F)N(Cc1ccc(-c2noc(C(F)(F)F)n2)cc1)Cc1ccco1 (stereo not drawn) [Compound 1.464, 2,2-difluoro-N-(2-furylmethyl)-N-[[4-[5-(trifluoromethyl)-1,2,4-oxadiazol-3-yl]phenyl]methyl]-cyclopropane-carboxamide] | – | ≥ 80 | ≥ 80
C=CCN(Cc1ccc(-c2noc(C(F)(F)F)n2)cc1)C(=O)CCl [Compound 1.482, N-allyl-2-chloro-N-[[4-[5-(trifluoromethyl)-1,2,4-oxadiazol-3-yl]phenyl]methyl]-acetamide] | – | ≥ 80 | ≥ 80
CC(=O)NCC(=O)N(Cc1ccc(-c2noc(C(F)(F)F)n2)cc1)OCC=C(Cl)Cl [Compound 1.537, 2-acetamido-N-(3,3-dichloroallyloxy)-N-[[4-[5-(trifluoromethyl)-1,2,4-oxadiazol-3-yl]phenyl]methyl]-acetamide] | – | ≥ 80 | ≥ 80
CCC(=O)N(Cc1ccc(-c2noc(C(F)(F)F)n2)cc1)OCc1ccc(Cl)cc1 [Compound 1.550, N-[(4-chlorophenyl)-methoxy]-N-[[4-[5-(trifluoromethyl)-1,2,4-oxadiazol-3-yl]phenyl]methyl]-propanamide] | – | ≥ 80 | ≥ 80
CON(Cc1ccc(-c2noc(C(F)(F)F)n2)cc1F)C(=O)c1ccccc1Cl [Compound 1.565, 2-chloro-N-[[2-fluoro-4-[5-(trifluoromethyl)-1,2,4-oxadiazol-3-yl]phenyl]methyl]-N-methoxy-benzamide] | – | ≥ 80 | ≥ 80
CON(Cc1c(F)cc(-c2noc(C(F)(F)F)n2)cc1F)C(=O)c1ccccc1Cl [Compound 1.598, 2-chloro-N-[[2,6-difluoro-4-[5-(trifluoromethyl)-1,2,4-oxadiazol-3-yl]phenyl]methyl]-N-methoxy-benzamide] | – | ≥ 80 | ≥ 80
CCCCON(Cc1ccc(-c2noc(C(F)(F)F)n2)cc1)C(=O)COC [Compound 1.602, N-butoxy-2-methoxy-N-[[4-[5-(trifluoromethyl)-1,2,4-oxadiazol-3-yl]phenyl]methyl]-acetamide] | – | ≥ 80 | ≥ 80
CC#CCOC(=O)N(Cc1ccc(-c2noc(C(F)(F)F)n2)cc1)OC [Compound 2.7, but-2-ynyl N-methoxy-N-[[4-[5-(trifluoromethyl)-1,2,4-oxadiazol-3-yl]phenyl]methyl]-carbamate] | – | ≥ 80 | ≥ 80
CON(Cc1ccc(-c2noc(C(F)(F)F)n2)cc1)C(=O)N1CCCO1 [Compound 3.66, N-methoxy-N-[[4-[5-(trifluoromethyl)-1,2,4-oxadiazol-3-yl]phenyl]methyl]-isoxazolidine-2-carboxamide] | – | ≥ 80 | ≥ 80
C#CCN(C)C(=O)N(CC)Cc1ccc(-c2noc(C(F)(F)F)n2)cc1 [Compound 3.96, 1-ethyl-3-methyl-3-prop-2-ynyl-1-[[4-[5-(trifluoromethyl)-1,2,4-oxadiazol-3-yl]phenyl]methyl]urea] | – | ≥ 80 | ≥ 80
